Reference: patent publication US11426404B2, “Dosing of KRAS inhibitor for treatment of cancers” (AMGEN INC., priority 2019, dated 2022)
Values joined by “and” are separate entries in the source; they are usually repeats but may differ in a detail not shown here. Equal values may be shown once.

How the values were obtained:
[1] = test system: KRAS p.G12C tumors; settings: preclinical KRAS p.G12C models; cited from earlier work
[2] = clinical; settings: human, in vivo, po, 960 mg
[3] = test system: patients with CRC; assay: Phase 1 study, updated results (cutoff Jan. 8, 2020): adverse events in patients with CRC, N = 42; type: in vivo;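 note: values are patient incidence of adverse events, i.e. counts of patients experiencing each event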
Excerpt: (§1) A subject undergoing a therapy is monitored for adverse events (AE) during the course of the therapy. A treatment related AE is an AE that is related to the treatment drug. A treatment emergent AE is one that a subject develops undergoing the treatment that was not present prior to start of therapy. In some cases, the treatment emergent AE is not or suspected not to be related to the treatment itself AEs are characterized as one of five grades—grade 1 is a mild AE; grade 2 is a moderate AE; grade 3 is a severe AE; grade 4 is a life-threatening or disabling AE; and grade 5 is death related to AE.
(§2) The grading of AEs is based on the guidelines provided in the CTCAE version 5.0. AEs for DLT assessment: Hematological toxicity: Febrile neutropenia; Neutropenic infection; Grade 4 neutropenia; Grade ≥3 thrombocytopenia for >7 days; Grade 3 thrombocytopenia with grade ≥2 bleeding; Grade 4 thrombocytopenia; Grade 4 Anemia
(§3) Non-hematological toxicity Grade ≥4, vomiting or diarrhea; Grade 3 diarrhea or grade 3 vomiting lasting more than 3 days despite optimal medical support; Grade ≥3 nausea for 3 days or more despite optimal medical support; Any other grade ≥3 AE
All enrolled patients had received prior lines of systemic anticancer therapy.

[4] = test system: KRAS p.G12C tumors; assay: Preclinical KRAS p.G12C tumor models; type: in vivo
[5] = test system: KRAS p.G12C tumors; assay: Treatment of immune-competent mice; type: in vivo
[6] = test system: patients with advanced solid tumors other than NSCLC and CRC
Excerpt: as §1, §2, §3

For C=CC(=O)N1CCN(c2ncnc3c(F)c(-c4c(O)cccc4F)c(Cl)cc23)CC1 [ARS-1620], the in vivo efficacy [1] is given as “demonstrates in vivo efficacy”.

With C=CC(=O)N1CCN(c2nc(=O)n(-c3c(C)ccnc3C(C)C)c3nc(-c4c(O)cccc4F)c(F)cc23)[C@@H](C)C1 [Compound A, 4-((S)-4-acryloyl-2-methylpiperazin-1-yl)-6-fluoro-7-(2-fluoro-6-hydroxyphenyl)-1-(2-isopropyl-4-methylpyridin-3-yl)pyrido[2,3-d]pyrimidin-2(1H)-one] the AUC [2] was 65300 ng·h/mL, the AUC(0-t) [2] was 140 µg·h/mL and the tolerability ([3]; CRC patients) was “well tolerated with mild treatment-related toxicities”. For the same molecule, the “anemia, grade 3 treatment-related AE” value ([3]; CRC, 42 patients) was 1 patient, the “diarrhea, grade 3 treatment-related AE” value ([3]; CRC, 42 patients) was 1 patient and the “AEs leading to treatment discountinuation, Treatment-Emergent AEs (TEAEs)” value ([3]; CRC, N = 42) was 2 (4.8) n (%). The “AEs leading to treatment discountinuation, Treatment-related TEAEs” value ([3]; CRC, N = 42) was 0 (0.0) n (%), the “Anemia (treatment-related TEAE of any grade)” value ([3]; CRC, N = 42) was 2 (4.8) n (%) and the “Any grade, Treatment-Emergent AEs (TEAEs)” value ([3]; CRC, N = 42) was 38 (90.5) n (%). The “Any grade, Treatment-related TEAEs” value ([3]; CRC, N = 42) was 20 n (%) and 20 (47.6) n (%), the “Blood creatine phosphokinase increase (treatment-related TEAE of any grade)” value ([3]; CRC, N = 42) was 2 (4.8) n (%) and the “Diarrhea (treatment-related TEAE of any grade)” value ([3]; CRC, N = 42) was 8 (19.0) n (%). The “Dose-limiting toxicities, Treatment-related TEAEs” value ([3]; CRC, N = 42) was 0 (0.0) n (%), the “Fatal AEs, Treatment-Emergent AEs (TEAEs)” value ([3]; CRC, N = 42) was 3 (7.1) n (%) and the “Fatal AEs, Treatment-related TEAEs” value ([3]; CRC, N = 42) was 0 (0.0) n (%). For the same molecule, the “Fatigue (treatment-related TEAE of any grade)” value ([3]; CRC, N = 42) was 4 (9.5) n (%), the “Grade ≥2, Treatment-Emergent AEs (TEAEs)” value ([3]; CRC, N = 42) was 29 (69.0) n (%) and the “Grade ≥2, Treatment-related TEAEs” value ([3]; CRC, N = 42) was 9 (21.4) n (%). The “Grade ≥3, Treatment-Emergent AEs (TEAEs)” value ([3]; CRC, N = 42) was 13 (31.0) n (%), the “Grade ≥3, Treatment-related TEAEs” value ([3]; CRC, N = 42) was 2 (4.8) n (%) and the “Grade ≥4, Treatment-Emergent AEs (TEAEs)” value ([3]; CRC, N = 42) was 3 (7.1) n (%). For the same molecule, the “Grade ≥4, Treatment-related TEAEs” value ([3]; CRC, N = 42) was 0 (0.0) n (%), the “Nausea (treatment-related TEAE of any grade)” value ([3]; CRC, N = 42) was 2 (4.8) n (%) and the “Serious AEs, Treatment-Emergent AEs (TEAEs)” value ([3]; CRC, N = 42) was 10 (23.8) n (%). For the same molecule, the “Serious AEs, Treatment-related TEAEs” value ([3]; CRC, N = 42) was 0 (0.0) n (%), the “Vomiting (treatment-related TEAE of any grade)” value ([3]; CRC, N = 42) was 2 (4.8) n (%) and the “effect in combination with chemotherapy and targeted agents” value [4] was “significantly improved the anti-tumor efficacy of chemotherapy and targeted agents”. For the same molecule, the “outcome in combination with immune checkpoint inhibition” value [5] was “durable cures”, the “toxicities associated with Compound A” value ([6]; other solid tumors) was “mild and manageable” and the “AEs leading to treatment discontinuation, All Treatment-Emergent AEs (TEAEs)” value ([6]; other solid tumors, N = 25) was 3 (12.0) n (%). For the same molecule, the “Any grade, All Treatment-Emergent AEs (TEAEs)” value ([6]; other solid tumors, N = 25) was 20 (80.0) n (%), the “Any grade, All Treatment-Related TEAEs” value ([6]; other solid tumors, N = 25) was 9 (36.0) n (%) and the “Dose-limiting toxicities, All Treatment-Related TEAEs” value ([6]; other solid tumors, N = 25) was 0 (0.0) n (%). The “Fatal AEs, All Treatment-Emergent AEs (TEAEs)” value ([6]; other solid tumors, N = 25) was 4 (16.0) n (%), the “Fatal AEs, All Treatment-Related TEAEs” value ([6]; other solid tumors, N = 25) was 0 (0.0) n (%) and the “Grade ≥2, All Treatment-Emergent AEs (TEAEs)” value ([6]; other solid tumors, N = 25) was 17 (68.0) n (%). The “Grade ≥2, All Treatment-Related TEAEs” value ([6]; other solid tumors, N = 25) was 4 (16.0) n (%), the “Grade ≥3, All Treatment-Emergent AEs (TEAEs)” value ([6]; other solid tumors, N = 25) was 15 (60.0) n (%) and the “Grade ≥3, All Treatment-Related TEAEs” value ([6]; other solid tumors, N = 25) was 2 (8.0) n (%). The “Grade ≥4, All Treatment-Emergent AEs (TEAEs)” value ([6]; other solid tumors, N = 25) was 4 (16.0) n (%), the “Grade ≥4, All Treatment-Related TEAEs” value ([6]; other solid tumors, N = 25) was 0 (0.0) n (%) and the “Serious AEs, All Treatment-Emergent AEs (TEAEs)” value ([6]; other solid tumors, N = 25) was 13 (52.0) n (%). The “Serious AEs, All Treatment-Related TEAEs” value ([6]; other solid tumors, N = 25) was 1 (4.0) n (%), the “diarrhea, grade 3 treatment-related AE” value ([6]; out of 25 patients) was 1 patients and the “diarrhea, treatment-related TEAE” value ([6]; out of 25 patients) was 2 patients. The “fatigue, treatment-related TEAE” value ([6]; out of 25 patients) was 2 patients and the “pneumonia, grade 3 treatment-related AE” value ([6]; out of 25 patients) was 1 patients.
